EC50 data for 95 compounds are collected here from PubChem BioAssay AID2423 (Broad Institute, 2010).

Molecules are shown by their SMILES. Results filed as inconclusive are left out. Activity calls are given as the source filed them. The rule behind the calls is not given here. Where only a bound is given, the exact number is not on record here.

In general, EC50 refers to the midpoint of the concentration-response curve.

This assay concerns C. albicans CaCi-8 + fluconazole, Alamar Blue growth, 48 h. Put plainly: resistant C. albicans growth inhibition with fluconazole, dose response, CaCi-8 strain, Alamar Blue fluorescence (AID 2423). Background: Resazurin is reduced to fluorescent resorufin, in cell work by metabolically active cells.
Take `CC(C)(C)c1nnc(NC(=O)CCS(=O)(=O)c2ccccc2)s1`: the EC50 was 943 nM.

Turning to `N=C1/C(=C\c2ccc(SCc3ccccc3)o2)C(=O)N=C2SC=NN12`, the EC50 is > 15000 nM (inactive).

As to `CC(C)OP(=O)(c1ccc(N(C)C)cc1)C(O)c1ccccc1` (stereo not given), the EC50 is 4320 nM.

`O=C(NNC(=S)NC(=O)c1ccccc1)c1ccc([N+](=O)[O-])cc1`: the EC50 is 4120 nM.

Take `O=C(CCN1CCN(c2ccccc2)CC1)N/N=C/c1ccc(O)c(O)c1O`: the EC50 is 4020 nM.

Regarding `COc1ccc(/C=C2\N=C(SC)NC2=O)cc1`, the EC50 is 3750 nM.

In the case of `O=Nc1c(-c2cccc([N+](=O)[O-])c2)nc2ncccn12`, the EC50 is 828 nM.

Take `C=CC(C)(C)c1c(O)c(CC=C(C)C)c(O)c2c(=O)c3ccc(O)c(O)c3oc12`: the EC50 was 3410 nM.

Regarding `O=C(NNC1=C(C(=O)C(F)(F)F)CCC1)c1ccc(Cl)cc1`, the EC50 is 1040 nM.

As to `COc1ccc(OC)c(-n2c(CN3CCC(C(N)=O)CC3)nc3ccccc3c2=O)c1`, the EC50 was > 15000 nM (inactive).

`O=C(NC(=S)NNC(=O)c1cnccn1)c1ccc(Cl)cc1`: the EC50 is 3420 nM.

For `CCN(CC)c1cccc(OC2=NS(=O)(=O)c3ccccc32)c1`, the EC50 was 11000 nM.

As for `Cc1cc(C)n(-c2nc3ccccc3c(=O)n2OCC#N)n1`, the EC50 is 456 nM.

For `N#C/C(=C\c1ccc(N2CCOCC2)cc1)c1ccccc1`, the EC50 was 492 nM.

Turning to `CC(C)NC(=S)N/N=C/c1ccc(C(C)(C)C)cc1`, the EC50 is > 16000 nM (inactive).

Consider `Cc1ccc(S(=O)(=O)c2c(C)nn(C(C)(C)C)c2OC(=O)c2ccc(Br)o2)cc1`, for which the EC50 was > 16000 nM (inactive).

`Cc1cccc(-n2c(SCc3cc(=O)n4ccsc4n3)nc3ccccc32)c1`: the EC50 is > 15000 nM (inactive).

`Cc1[nH]n(-c2ccccc2)c(=O)c1/C=N/Nc1nncc(-c2ccccc2)n1`: the EC50 was 2670 nM.

On to `O=C(NCc1ccco1)c1sc(=S)n2c1[nH]c(=O)c1ccccc12`, for which the EC50 is 212 nM.

`COCCNC(=O)NC12CC3CC(CC(C3)C1)C2`: the EC50 was > 16000 nM (inactive).

Take `Cc1cc(C(=O)NNC(=S)NC(C)c2ccccc2)c2ccccc2n1` (stereo not given): the EC50 is 3090 nM.

Consider `CCOC(=O)c1sc(N2C(=O)C(O)=C(C(=O)c3ccco3)C2c2cccc(Cl)c2)nc1C` (stereo not given), for which the EC50 was 597 nM.

In the case of `CCc1ccc2oc(-c3ccc(OC)cc3)cc(=Nc3c(C)n(C)n(-c4ccccc4)c3=O)c2c1`, the EC50 is 1540 nM.

With `Cc1ccc(C(=O)CC(=O)c2ccccc2C)c(O)c1`, the EC50 is 1900 nM.

For `O=[N+]([O-])c1ccc(C(=Nc2cccc3ccccc23)N2CCOCC2)cc1`, the EC50 is 1350 nM.

Take `Cn1c(SC2=CS(=O)(=O)c3ccccc32)nc2ccccc21`: the EC50 was 2320 nM.

Regarding `Cc1ccc(NC(=O)NC2CCCCCCC2)c(C)c1`, the EC50 is > 16000 nM (inactive).

Regarding `CCC(=O)NC(c1ccco1)c1cc(Cl)c2cccnc2c1O` (stereo not given), the EC50 is 788 nM.

Take `C[N+]1(CC(=O)OC2CCCCCCCCCCC2)CCCC1`: the EC50 is 4940 nM.

Turning to `CCN(CC)c1ccc(/C=N/Nc2nc(C)cc(=O)[nH]2)c(O)c1`, the EC50 was 500 nM.

Turning to `Cc1ccc(Nc2nc(N)c([N+](=O)[O-])c(N3CCC(C)CC3)n2)cc1C`, the half-maximal effective concentration (EC50) was 3640 nM.

In the case of `Cc1cccc(N=Nc2c(C)[nH]n(C(N)=S)c2=O)c1C`, the concentration for a half-maximal effect (EC50) was 944 nM.

As for `CCN(CC)c1ccc(/C=N/NC(=O)CNC(=O)C2COc3ccccc3O2)c(O)c1` (stereo not given), the EC50 was 1110 nM.

`CC1=C/C(=N\NC(=S)NCCc2ccccc2)CC(C)(C)C1`: the EC50 was > 15000 nM (inactive).

`O=[N+]([O-])c1ccc(O)c(P(=O)(c2ccccc2)c2ccccc2)c1`: the EC50 was > 15000 nM (inactive).

In the case of `CCOC(=O)C1CCCN(c2cc(C)nc3cc(-c4ccc(F)cc4)nn23)C1` (stereo not given), the EC50 was > 16000 nM (inactive).

In the case of `C=CCNC(=S)N/N=C(\C)c1ccccn1`, the EC50 is 2300 nM.

As for `COc1cccc(/C=N/Nc2cc(C)nc(-c3ccccc3O)n2)c1O`, the EC50 was less than 120 nM.

Turning to `O=C(O)c1cccc(CSc2nc(-c3ccccc3)cc(C(F)(F)F)n2)c1`, the concentration for a half-maximal effect (EC50) is 6820 nM.

As for `CCOC(=O)c1c(NC(=O)CN2CCN(C(=O)c3ccco3)CC2)sc2c1CCCC2`, the EC50 is > 15000 nM (inactive).

Regarding `Nc1n[nH]c(-c2cccc([N+](=O)[O-])c2)n1`, the EC50 was > 15000 nM (inactive).

Take `O=C(CCl)N(c1ccc(Cl)cc1)c1c[nH]c2ccccc12`: the EC50 was 6410 nM.

For `CC1CCN(Cc2c(C(=O)N/N=C/c3cc(Cl)ccc3O)nnn2-c2nonc2N)CC1`, the concentration for a half-maximal effect (EC50) is 693 nM.

In the case of `CCOC(=O)c1ccc(NC(=O)Nc2ccn(C)n2)cc1`, the EC50 was 1510 nM.

In the case of `C/C(CC(=O)Nc1cc(C)ccn1)=N\NC(=O)c1cccc(C)c1O`, the EC50 is > 16000 nM (inactive).

On to `CC(C)C(=O)NC(c1cccs1)c1cc([N+](=O)[O-])c2cccnc2c1O` (stereo not given), for which the 50% effective concentration (EC50) was 778 nM.

In the case of `COc1ccc(/C=N/NC(=O)c2cc(O)c(O)c(O)c2)cc1Cn1cc([N+](=O)[O-])cn1`, the EC50 was 1440 nM.

With `C[C@@H]1C[C@@H]2O[C@H]2/C=C\C=C\C(=O)Cc2c(Cl)c(O)cc(O)c2C(=O)O1`, the EC50 was 234 nM.

For the compound `CCn1c(COc2ccc(=O)n(-c3ccccc3)n2)nnc1SCc1cccc(OC)c1`, the EC50 is > 16000 nM (inactive).

As for `O=C(OCn1ncc(Cl)c(Cl)c1=O)c1ccc(F)cc1`, the EC50 was > 16000 nM (inactive).

In the case of `COc1cc(OC)c2cc(C(=O)N/N=C/c3ccccc3O)[nH]c2c1`, the EC50 is 1240 nM.

On to `O=C(NC1CCCCC1)c1cc([N+](=O)[O-])[nH]n1`, for which the EC50 was 1120 nM.

As to `O=C(NCCc1ccccc1)c1c(O)c2cccc3c2n(c1=O)CC3`, the EC50 was > 15000 nM (inactive).

For `CCc1ccc(-c2csc3ncn(Cc4ccc(C(=O)O)cc4)c(=O)c23)cc1`, the concentration for a half-maximal effect (EC50) is 954 nM.

Turning to `COc1ccc(C(=O)NC(=S)NNC(=O)c2ccc(C)cc2)cc1`, the EC50 was 2410 nM.

As to `CC(C)n1cc(/C=C/c2cc[n+](C)cc2)c2ccccc21`, the EC50 was 3090 nM.

Regarding `O=C(Nc1ccccc1Cl)c1ccc([N+](=O)[O-])o1`, the EC50 was 693 nM.

Turning to `Cc1cc(SCC(=O)N/N=C/c2ccc(O)c(O)c2O)c(C)cc1Br`, the EC50 is 884 nM.

For the compound `Oc1ccc(CN2CCCCC2)c2cccnc12`, the EC50 was 16100 nM.

For the compound `Cc1c2ccccc2nc2c(F)c(NCCO)c(F)c(F)c12`, the EC50 is > 16000 nM (inactive).

As to `CCN(CC)C(=O)/C(=C/c1ccc2c(c1)OCO2)NC(=O)c1ccc(Br)cc1`, the EC50 is 1200 nM.

With `CCCCCc1ccc(OCCCC[n+]2ccc(C)cc2)c(CCCCC)c1`, the EC50 is > 16000 nM (inactive).

`COc1cc(C(=O)Oc2c(CN3CCOCC3)cc(Cl)c3cccnc23)cc(OC)c1OC`: the EC50 was 2740 nM.

Take `Oc1nc(Nc2ccccc2)sc1/C=C1\C=Nc2ccccc21`: the concentration for a half-maximal effect (EC50) was 1630 nM.

`Cc1c(Cl)ccc2c1NC(=O)[C@]21N[C@@H](Cc2ccccc2)[C@H]2C(=O)N(c3ccc(F)cc3)C(=O)[C@H]21`: the EC50 is less than 120 nM.

On to `NC(=S)NNc1cccc(Cl)c1`, for which the EC50 is > 16000 nM (inactive).

In the case of `O=S(=O)(O)c1cc(O)c2c(O)c(N=Nc3cc(Cl)ccc3O)c(S(=O)(=O)O)cc2c1`, the EC50 is 7520 nM.

On to `Cc1cc2oc3ccc(NCCCn4ccnc4)cc3c(=O)c2cc1C`, for which the EC50 is 1990 nM.

As to `NC[C@@H]1O[C@H](C23CC4CC(CC(C4)C2)C3)Cc2c1ccc(O)c2O`, the EC50 is 3360 nM.

As to `COc1ccc(NC(=O)c2ccc([N+](=O)[O-])o2)cc1`, the EC50 was 1340 nM.

For `Cc1ccc(O)c(-c2cc(-c3cccc(Br)c3)n[nH]2)c1`, the EC50 is 6710 nM.

On to `Cc1nn(-c2ccccc2)c(C)c1C(=O)OC/C(O)=C(\C#N)c1nc2ccccc2[nH]1`, for which the EC50 was 1030 nM.

As for `CCN1CCN(C(c2cccnc2)c2cc(Cl)c3cccnc3c2O)CC1` (stereo not given), the EC50 is 978 nM.

`Cc1ccccc1C(=O)NNC(=S)NC(=O)c1ccc(Cl)cc1Cl`: the EC50 is 1390 nM.

Consider `O=[N+]([O-])c1cccnc1S(=O)(=O)c1ccccc1`, for which the EC50 is 865 nM.

Regarding `CCc1ccccc1NC(=S)NNC(=O)c1ccccc1Cl`, the EC50 was 823 nM.

As to `COc1ccc(-c2cc(C3CCN(Cc4cccc(C(F)(F)F)c4)CC3)[nH]n2)cc1`, the EC50 was 8130 nM.

For `Cc1nn2c([nH]c(=O)c3ccccc32)c1C=O`, the EC50 is 961 nM.

Turning to `Cc1ccc(NC(=O)NNC(=O)c2cc3ccccc3cc2O)cc1C`, the EC50 was > 16000 nM (inactive).

Regarding `C[C@]12CC[C@H](O)C[C@@H]1CC[C@@H]1[C@@H]2CC[C@]2(C)C(=O)CC[C@@H]12`, the EC50 is 5650 nM.

For `CCNC(=S)NNC(=O)c1cc(-c2cccc(C)c2)nc2ccccc12`, the EC50 was 2270 nM.

As to `COc1ccc(NC(=O)NC(C)c2ccccc2)cc1` (stereo not given), the EC50 is > 16000 nM (inactive).

On to `Cc1cccc(N2CCN(c3nc(C)cc(C)c3C#N)CC2C)c1` (stereo not given), for which the EC50 is > 16000 nM (inactive).

As for `O=C(c1ccco1)N1CCN(c2ncnc3c(-c4ccccc4)nsc23)CC1`, the EC50 is 1260 nM.

Consider `O=C(CSc1nnc(-c2ccco2)n1Cc1ccccc1)OC1CCCCC1`, for which the EC50 is > 15000 nM (inactive).

Take `Oc1[nH]c2c(Cl)cc(Cl)cc2c1N=NC(=S)NCC1CCCO1` (stereo not given): the EC50 is 3580 nM.

For `COc1cccc(-n2c(SCc3cc(=O)oc4cc(O)c(O)cc34)nc3ccccc3c2=O)c1`, the half-maximal effective concentration (EC50) was 5670 nM.

For the compound `CCOC(=O)c1ccc(NC(=O)Cn2ncc(Cl)c(Cl)c2=O)cc1`, the EC50 was 894 nM.

On to `C/C(=C\C(=O)OCCCCCCCCC(=O)O)C[C@@H]1OC[C@H](C[C@@H]2O[C@H]2[C@@H](C)[C@H](C)O)[C@@H](O)[C@H]1O`, for which the EC50 is > 15000 nM (inactive).

On to `CC/C(=N/NC(=O)c1ccccc1O)c1c(C)[nH]n(-c2ccccc2)c1=O`, for which the EC50 was 754 nM.

For `Oc1ccccc1N=Nc1ccccc1O`, the concentration giving a half-maximal response (EC50) was 973 nM.

Take `O=C(N/N=C/c1ccc(O)cc1O)c1ccc(CN2C(=O)c3cccc4cccc2c34)cc1`: the concentration for a half-maximal effect (EC50) is 709 nM.

Regarding `O=C(c1ccc2c(c1)OCO2)N1CCC2(CC1)Oc1ccc(Cl)cc1C(=O)C21CC(c2cccnc2)=NO1` (stereo not given), the EC50 was 438 nM.

`O=C(CNS(=O)(=O)c1ccc(Br)s1)NCC1COc2ccccc2O1` (stereo not given): the EC50 was > 15000 nM (inactive).

In the case of `Cc1cc(SCC(=O)N/N=C/c2ccc(O)cc2O)c(C)cc1Br`, the EC50 is 5010 nM.
